Results from EP1343508B1, “USE OF AN OESTROGEN IN THE MANUFACTURE OF A COMPOSITION CONTAINING OESTROGEN FOR THE TREATMENT OF ATROPHIC VAGINITIS” (Novo Nordisk Femcare AG, priority 2000, dated 2002).
Where “and” joins values, the source holds several entries; their conditions need not be identical. Identical values can stand only once. Marks after values point to notes of the source that are not given here.

What was measured:
vaginal mucosal cells = test: Maturation value of vaginal mucosal cells, Example 2; type: in vivo, postmenopausal women
Method: Maturation values of vaginal mucosal cells were assessed as an indicator of changes in the condition of the vaginal mucosa in response to treatment.
After the screening visit, patients received no study treatment during the 4-week run-in period prior to the baseline visit. […] The vaginal tablets were identical in appearance. Patients inserted 1 tablet intravaginally, once daily for the initial 2 weeks of the study and then twice per week (Sunday and Thursday) for the remaining 10 weeks. Patients were instructed to use their medication at a consistent time each day, preferably in the morning.
Upon presentation to the clinic for each visit, a vaginal cytology specimen was obtained. Patients then inserted the tablets. […] The blood samples obtained at 30 minutes before insertion, and at 6, 12, and 24 hours after insertion were also used to determine the FSH concentration via immunoradiometric assay. […]

[1] = system: postmenopausal women with atrophic vaginitis; test: Vaginal symptom composite score (dryness, soreness, irritation), Example 3; type: in vivo; details: scale 0-3
Method: Efficacy was measured with composite scores of vaginal symptoms (dryness, soreness, and irritation) and vaginal health (secretions, epithelial integrity, surface thickness, and pH). Vaginal and urethral cytology analyses were also performed, and the vaginal maturation value was determined. Safety assessments included endometrial biopsies. […] All vaginal tablets were identical in appearance. Patients inserted 1 tablet daily for 14 days. Thereafter, patients inserted 1 tablet twice per week (Sunday and Thursday) for the remainder of the trial. Patients were to insert the tablets at the same time each day (preferably at bedtime). Patients were evaluated for efficacy and safety at Week - 4 (screening), Week 0 (baseline), and Weeks 2, 7, and 12. Efficacy assessments included patient ratings of atrophic vaginitis symptoms, investigator ratings of vaginal health, and vaginal and urethral cytology. Patients used intensity ratings of none, mild, moderate, or severe to evaluate atrophic vaginitis symptoms (dryness, soreness, irritation, dyspareunia, and vaginal discharge). Intensity ratings were assigned ascending scores from 0 (none) to 3 (severe) for analysis. A composite score for atrophic vaginitis symptoms was defined as the average of the individual symptom scores for dryness, soreness, and irritation. […] The composite score and the change from baseline for the composite score were examined at each time point. Differences within and between treatment groups were analyzed using an analysis of variance (ANOVA). […] Efficacy was measured with composite scores of vaginal symptoms (dryness, soreness, and irritation) and vaginal health (secretions, epithelial integrity, surface thickness, and pH). Vaginal and urethral cytology analyses were also performed, and the vaginal maturation value was determined. Safety assessments included endometrial biopsies. […] Patients were evaluated for efficacy and safety at Week - 4 (screening), Week 0 (baseline), and Weeks 2, 7, and 12. […] Differences within and between treatment groups were analyzed using an analysis of variance (ANOVA).

[2] = system: superficial vaginal cells; test: Vaginal cytology, percentage of superficial cells, Example 3; type: in vivo, postmenopausal women
Method: Efficacy was measured with composite scores of vaginal symptoms (dryness, soreness, and irritation) and vaginal health (secretions, epithelial integrity, surface thickness, and pH). Vaginal and urethral cytology analyses were also performed, and the vaginal maturation value was determined. Safety assessments included endometrial biopsies.
All vaginal tablets were identical in appearance. Patients inserted 1 tablet daily for 14 days. Thereafter, patients inserted 1 tablet twice per week (Sunday and Thursday) for the remainder of the trial. Patients were to insert the tablets at the same time each day (preferably at bedtime). Patients were evaluated for efficacy and safety at Week - 4 (screening), Week 0 (baseline), and Weeks 2, 7, and 12.
Vaginal and urethral cell samples were harvested and analyzed by independent cytologists to determine the percentages of parabasal, intermediate, and superficial cells. Maturation values were calculated according to the following equation: maturation value = 1.0 × [superficial cells, %] + 0.5 × [intermediate cells, %] [formula] Endometrial biopsies were performed at the end of the study in patients with intact uteri. The number of patients with abnormal biopsies was compared between treatment groups.

Structure (SMILES): C[C@]12CC[C@@H]3c4ccc(O)cc4CC[C@H]3[C@@H]1CC[C@@H]2O [E2, 17β-estradiol]
- maturation value, Mean ± SD (vaginal mucosal cells; 10 µg E2, Week 0 (baseline)): 51.0 and 51.0 ± 6.2
- maturation value, Mean change ± SD from baseline (vaginal mucosal cells; 10 µg E2, Week 12): 11.2 ± 17.8^b
- maturation value, Mean ± SD (vaginal mucosal cells; 10 µg E2, Week 12): 62.2 ± 15.7
- patients with increases in maturation values from baseline (vaginal mucosal cells; 10 µg E2, Week 12): 14 patients
- percentage of patients with increases in maturation values from baseline (vaginal mucosal cells; 10 µg E2, Week 12): 64%
- maturation value, Mean ± SD (vaginal mucosal cells; 25 µg E2, Week 0 (baseline)): 52.4 and 53.4 and 52.4 ± 7.1
- maturation value, Mean change ± SD from baseline (vaginal mucosal cells; 25 µg E2, Week 12): 7.0 ± 8.7^b
- maturation value, Mean ± SD (vaginal mucosal cells; 25 µg E2, Week 12): 58.4 ± 7.5
- patients with increases in maturation values from baseline (vaginal mucosal cells; 25 µg E2, Week 12): 13 patients
- percentage of patients with increases in maturation values from baseline (vaginal mucosal cells; 25 µg E2, Week 12): 68%
- vaginal symptom composite score ([1]; 10 µg E2, Week 12): ~0.6
- vaginal symptom composite score ([1]; 25 µg E2, Week 12): approximately 0.5
- vaginal symptom composite score ([1]; each treatment group (25 or 10 µg E2), Week 0 (baseline)): approximately 1.9
- percentage of superficial vaginal cells, Mean ([2]; 10 µg E2, Week 0): 3.1%
- percentage of superficial vaginal cells, Mean ([2]; 10 µg E2, Week 2): 28.3%
- percentage of superficial vaginal cells, mean Change from baseline ([2]; 10 µg E2, Week 2): 25.0^a %
- percentage of superficial vaginal cells, mean Change from baseline ([2]; 10 µg E2, Week 7): 17.1%
- percentage of superficial vaginal cells, mean Change from baseline ([2]; 10 µg E2, Week 12): 16.9^d %
- percentage of superficial vaginal cells, Mean ([2]; 25 µg E2, Week 0): 4.0%
- percentage of superficial vaginal cells, Mean ([2]; 25 µg E2, Week 2): 34.2%
- percentage of superficial vaginal cells, mean Change from baseline ([2]; 25 µg E2, Week 2): 30.7^a %
- percentage of superficial vaginal cells, Mean ([2]; 25 µg E2, Week 7): 28.2%
- percentage of superficial vaginal cells, mean Change from baseline ([2]; 25 µg E2, Week 7): 23.9^b,c %
- percentage of superficial vaginal cells, mean Change from baseline ([2]; 25 µg E2, Week 12): 15.4%
